# Assay results reported in patent US20150291565A1, “INDOLE COMPOUNDS AND THEIR USE AS ANTIMICROBIALS” (Memorial Sloan-Kettering Cancer Center, priority 2012, published 2015).
# Tests used:
# MRSA = assay: Disk diffusion assay, zone of inhibition, MRSA; format: cell-based, Staphylococcus aureus; conditions: disk diffusion zone of inhibition
# M. smegmatis (mc2155) = assay: Disk diffusion assay, zone of inhibition, M. smegmatis; format: cell-based; conditions: disk diffusion zone of inhibition
# [1] = test system: S. aureus ATCC 29213 (MSSA); assay: Broth dilution MIC, S. aureus ATCC 29213; format: cell-based
# [2] = test system: S. aureus ATCC 33591 (MRSA); assay: Broth dilution MIC, S. aureus ATCC 33591; format: cell-based
# S. aureus BAA-39 (MDR) = assay: Broth dilution MIC, S. aureus BAA-39; format: cell-based
# [3] = test system: S. pneumoniae ATCC 6301 (PSSP); assay: Broth dilution MIC, S. pneumoniae ATCC 6301; format: cell-based
# [4] = test system: S. pneumoniae ATCC 700674 (PRSP); assay: Broth dilution MIC, S. pneumoniae ATCC 700674; format: cell-based
# [5] = test system: E. faecalis ATCC 29212 (VRE); assay: Broth dilution MIC, E. faecalis ATCC 29212; format: cell-based
# [6] = test system: E. faecium ATCC 700221 (VRE); assay: Broth dilution MIC, E. faecium ATCC 700221; format: cell-based
# E. faecium CT-26 = assay: Broth dilution MIC, E. faecium CT-26; format: cell-based
# E. coli ECM 1694 = assay: Broth dilution MIC, E. coli ECM 1694; format: cell-based
# E. coli ATCC 25922 = assay: Broth dilution MIC, E. coli ATCC 25922; format: cell-based; conditions: Table 4; broth dilution MIC according to CLSI standards (NAEJA)
# K. pneumoniae ATCC 13883 = assay: Broth dilution MIC, K. pneumoniae ATCC 13883; format: cell-based; conditions: Table 4; broth dilution MIC according to CLSI standards (NAEJA)
# K. pneumoniae ATCC 51503 = assay: Broth dilution MIC, K. pneumoniae ATCC 51503; format: cell-based; conditions: Table 4; broth dilution MIC according to CLSI standards (NAEJA)
# P. aeruginosa ATCC 9027 = assay: Broth dilution MIC, P. aeruginosa ATCC 9027; format: cell-based; conditions: Table 4; broth dilution MIC according to CLSI standards (NAEJA)
# E. coli (ATCC 25922) = assay: Septicemia survival model in neutropenic CD1 mice, E. coli; format: in vivo; conditions: 10 mg/kg BID SC
# [7] = Table 4, broth dilution MIC according to CLSI standards (NAEJA)
molecule,measurement,setting,value
Nc1ccc(-c2cc3ccc(C4=NCCN4)cc3[nH]2)cc1 [Compound 398657],Zone Size MRSA,MRSA,8.3 mm
same,Zone Size M. smegmatis,M. smegmatis (mc2155),9.2 mm
"C[C@@H](O)[C@H]1C(=O)N2C(C(=O)O)=C(SCCN=CN)C[C@H]12 [IMP, reference compound]",MIC S. aureus ATCC 29213,"[1]; Table 3, starting at 4 μg/ml",0.016 µg/mL
same,MIC MSSA S. aureus ATCC 29213,[1]; [7],0.06 µg/mL
same,MIC S. aureus ATCC 33591,"[2]; Table 3, starting at 4 μg/ml",>4 µg/mL
same,MIC MRSA S. aureus ATCC 33591,[2]; [7],>4 µg/mL
same,MIC S. aureus BAA-39,"S. aureus BAA-39 (MDR); Table 3, starting at 4 μg/ml",1 µg/mL
same,MIC MDR S. aureus BAA-39,S. aureus BAA-39 (MDR); [7],4 µg/mL
same,MIC S. pneumoniae ATCC 6301,"[3]; Table 3, starting at 4 μg/ml",≦0.008 mcg/ml
same,MIC PSSP S. pneumoniae ATCC 6301,[3]; [7],0.015 µg/mL
same,MIC S. pneumoniae ATCC 700674,"[4]; Table 3, starting at 4 μg/ml",0.06 µg/mL
same,MIC PRSP S. pneumoniae ATCC 700674,[4]; [7],0.5 µg/mL
same,MIC E. faecalis ATCC 29212,"[5]; Table 3, starting at 4 μg/ml",1 µg/mL
same,MIC VRE E. faecalis ATCC 29212,[5]; [7],4 µg/mL
same,MIC E. faecium ATCC 700221,"[6]; Table 3, starting at 4 μg/ml",>4 µg/mL
same,MIC VRE E. faecium ATCC 700221,[6]; [7],>4 µg/mL
same,MIC E. faecium CT-26,"E. faecium CT-26; Table 3, starting at 4 μg/ml",>4 µg/mL
same,MIC E. faecium CT-26,E. faecium CT-26; [7],>4 µg/mL
same,MIC E. coli ECM 1694,"E. coli ECM 1694; Table 3, starting at 4 μg/ml",0.5 µg/mL
same,MIC E. coli ECM 1694,E. coli ECM 1694; [7],2 µg/mL
same,MIC E. coli ATCC 25922,E. coli ATCC 25922,1 µg/mL
same,MIC K. pneumoniae ATCC 13883,K. pneumoniae ATCC 13883,2 µg/mL
same,MIC K. pneumoniae ATCC 51503,K. pneumoniae ATCC 51503,2 µg/mL
same,MIC P. aeruginosa ATCC 9027,P. aeruginosa ATCC 9027,4 µg/mL
Gentamicin [reference compound],Percent Survival Day 1,E. coli (ATCC 25922),100%
same,Percent Survival Day 2,E. coli (ATCC 25922),100%
same,Percent Survival Day 3,E. coli (ATCC 25922),80%
same,Percent Survival Day 4,E. coli (ATCC 25922),60%
same,Percent Survival Day 5,E. coli (ATCC 25922),60%
same,Percent Survival Day 6,E. coli (ATCC 25922),60%
same,Percent Survival Day 7,E. coli (ATCC 25922),60%
